Experimental data as given in patent US12478693B2, “Compositions and methods for detection of traumatic brain injury” (Amydis, Inc., priority 2018, dated 2025).
Entries after “also recorded” stand apart in the source; their conditions may differ.

Columns and labels:
Assay type in all cases: binding
[1] = system: aggregated proteins in retina; assay: Retina staining after controlled cortical impact (Example 3); details: 3 month old C5BL/6 mice, 24 h after CCI
From the text: 3 month old C5BL/6 mice were briefly anesthetized with isoflurane and placed in a stereotaxic frame. Mice were subjected to craniotomy over the right primary and secondary motor cortex and parietal-temporal cortex (+1 to −4 anterior-posterior from the bregma, 4 mm laterally from the sagittal suture). Half of the mice were not further injured to use as control specimen. For the remaining mice a 3 mm diameter piston was centered over the motor cortex approximately +0.5 to −2.5 mm from the bregma and 3 mm lateral to the sagittal suture. Using a stereotaxic impactor (Impact One, myNeuroLab.com), the piston was accelerated at a speed of 3 m/sec to an impact depth of 1 mm below the cortical surface. After 24 h, mice were euthanized and brain and eyes were collected. Retinas were extracted, stained with DAPI, Compound 1, and 6E10 antibody, and compared.
Retinas were mounted on slides and washed with phosphate-buffered saline (PBS) two times for five minutes each time. Retinas were exposed to 98% formic acid for one minute then washed two times with distilled water for five minutes each time. The retinas were then equilibrated in 1×PBS for 15 minutes. Retinas were exposed to 10% goat/donkey serum in 1× phosphate-buffered saline with Tween® 20 (PBST) for 1 h. Retinas were then incubated with […] in 10% goat serum in 1×PBST at 4° C. overnight. […]

[2] = target: T1, Aβ deposits in retina (Mus musculus, UniProt P12023); assay: Ex vivo detection of retinal Aβ aggregation in CCI mouse model (Example 4)
T1 construct: denotes peptides of about 36 to 43 amino acids; from tissue; host or cells: mouse retina dissected 24 h after CCI
T1 sequence (P12023 672-713 limits assumed): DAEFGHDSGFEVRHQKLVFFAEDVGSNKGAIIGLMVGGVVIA
Experimental: Mice were subjected to a controlled cortical impact (CCI). The CCI model applies a controlled impact to the intact dura after a craniotomy and is a commonly used TBI animal model. Mice were anesthetized, the head was mounted in a stereotaxic frame, and a craniotomy was performed over the right side of the frontal cortex. Using a stereotaxic impactor, mice received an impact on the right side of the frontal cortex using a 3 m/s velocity, 1 mm depth, and 3 mm diameter piston. After injury, the incision was closed with staples, anesthesia was terminated, and the animal was placed in a heated cage to maintain normal core temperature.
Sham injury consisted of exposure to anesthesia, stereotaxic mounting, skin and fascia reflection, and closing of incision with staples. Mice were then euthanized 24 hours after injury and retinal tissue were dissected for further analysis.
Retina from mice were extracted and stained with Compound 1 along with a 6E10 antibody, a sequence specific antibody for Aβ.
Mice were subjected to a controlled cortical impact (CCI). The CCI model applies a controlled impact to the intact dura after a craniotomy and is a commonly used TBI animal model. Mice were anesthetized, the head was mounted in a stereotaxic frame, and a craniotomy was performed over the right side of the frontal cortex. […]

[3] = system: amyloid beta in brain tissue; assay: Staining of brain tissue of TBI blast mouse model
From the text: Based on this evidence, this example further attempted to confirm that […] was also detected in the brain tissue of the same TBI blast mouse model. […] The evidence of Aβ in the brain tissue complements what was found in the retinal tissue of the same injured mouse. It also supports previous studies of the correlation between the brain and retina in the accumulation of Aβ.

[4] = system: amyloid-beta (Aβ) deposits in human retinal tissue; assay: Ex vivo fluorescence staining of post-mortem human retina with ASF probe; details: AD and cognitively normal patients, listed as ASF
Experimental: Post-mortem retinal tissue and brains of humans with confirmed or probable Alzheimer's disease (AD) were obtained and examined by staining amyloid-beta (A3) with a test amyloid sensitive fluorescent probe (ASF), Compound 1. This example was conducted to determine if the ASF could identify patients with amyloid burden in the brain through fluorescence inspection of retinas stained with the ASF.
While this example could observe these deposits in both AD (panels A-B) and cognitively normal patients (panels C-D), there is a qualitative correlation between the density of these deposits in the retina and the degree of amyloidosis in the brain (as estimated by immunohistochemistry (IHC) with anti-Aβ antibodies).
IHC staining of retinal cryosections provided further evidence for the existence of Aβ in retinal deposits with similar location, size, and morphology as the deposits found in retinal flat mounts stained with the ASF.

[5] = system: amyloid beta in retinal tissue; assay: Staining of retinal tissue of TBI blast mouse model; details: for fluorescent labelling of retinal Aβ deposits: blast mouse model, 24 hours after injury; for fluorescent labelling of retinal tissue: non-injured (normal) mouse
Experimental: This example was conducted to determine whether the ASF Compound 1 could detect AR in the retina of a TBI mouse model after injury.
Retinal tissue of a blast mouse model 24 hours after injury and a non-injured mouse were stained with the ASF and co-stained with an […] (6E10).

For `COCCOCCOCCNC(=O)/C(C#N)=C/c1ccc2cc(N3CCCCC3)ccc2c1` [Compound 1, (E)-2-cyano-N-(2-(2-(2-methoxyethoxy)ethoxy)ethyl)-3-(6-(piperidin-1l-yl)naphthalen-2-yl)acrylamide], the “detection of deposited aggregated proteins in retina” value [1] was “detected; also recorded: colocalized”, the “fluorescent labelling of retinal Aβ deposits” value ([2]; mice that received a CCI, 24 hours after injury, retina ex vivo) was “fluorescently labeled these deposits and co-localized with 6E10 immunoreactivity” and the “fluorescence enhancement in retina” value ([2]; uninjured (sham) mouse) was “did not display any fluorescence enhancement”. The “fluorescent labelling of amyloid beta in brain tissue” value ([3]; TBI blast mouse model) was “fluoresces amyloid beta in brain tissue of TBI blast mouse model”, the “fluorescent labelling of brain tissue” value ([3]; normal mouse) was “No visible fluorescence in normal mouse” and the “fluorescent visualization / binding of amyloid deposits in flat mounted retina” value [4] was “dense deposits that were 5-10 μm in diameter could be fluorescently visualized; also recorded: capable of binding to amyloid deposits in ex vivo human retinal tissue”. The “fluorescent labelling of retinal Aβ deposits” value [5] was “fluoresces amyloid beta in retinal tissue of TBI blast mouse model; also recorded: has the ability to detect retinal amyloids present in a TBI mouse model”, the “fluorescent labelling of retinal Aβ deposits” value ([5]; listed as ASF) was “fluorescently labels these retinal deposits” and the “fluorescent labelling of retinal tissue” value [5] was “No visible fluorescence in normal mouse”. The “fluorescent labelling of retinal tissue” value ([5]; listed as ASF) was “does not display any fluorescent enhancement”.
